# Assays:
# NF-κB pathway = experiment: TNF-α assay (THP-1 cells differentiated to macrophages with IFN-γ, NF-κB pathway activated with LPS; ELISA); assay type: cell-based, Human; settings: compound 30 min, 50 ng/mL LPS 3 hours
# Method in brief: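 TNF-α release measured by ELISA after 3 h stimulation with 50 ng/mL LPS, following 30 min compound pretreatment (37 °C, no FBS). Cells were THP-1 macrophages primed with IFN-γ 25 ng/mL for 24 h. IC50 derived by logistic curve fit.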
# NLRP3 inflammasome = target: T1, NLRP3 inflammasome (Homo sapiens, UniProt Q96P20); experiment: IL-1β TR-FRET assay (THP-1 cells differentiated to macrophages with IFN-γ, LPS primed, ATP activated; HTRF); assay type: cell-based; settings: THP-1 macrophages, 50 ng/mL LPS priming, compound 30 min, 20 mM ATP 2 hours
# T1 construct: IL-1beta HTRF
# T1 sequence (Q96P20 whole entry): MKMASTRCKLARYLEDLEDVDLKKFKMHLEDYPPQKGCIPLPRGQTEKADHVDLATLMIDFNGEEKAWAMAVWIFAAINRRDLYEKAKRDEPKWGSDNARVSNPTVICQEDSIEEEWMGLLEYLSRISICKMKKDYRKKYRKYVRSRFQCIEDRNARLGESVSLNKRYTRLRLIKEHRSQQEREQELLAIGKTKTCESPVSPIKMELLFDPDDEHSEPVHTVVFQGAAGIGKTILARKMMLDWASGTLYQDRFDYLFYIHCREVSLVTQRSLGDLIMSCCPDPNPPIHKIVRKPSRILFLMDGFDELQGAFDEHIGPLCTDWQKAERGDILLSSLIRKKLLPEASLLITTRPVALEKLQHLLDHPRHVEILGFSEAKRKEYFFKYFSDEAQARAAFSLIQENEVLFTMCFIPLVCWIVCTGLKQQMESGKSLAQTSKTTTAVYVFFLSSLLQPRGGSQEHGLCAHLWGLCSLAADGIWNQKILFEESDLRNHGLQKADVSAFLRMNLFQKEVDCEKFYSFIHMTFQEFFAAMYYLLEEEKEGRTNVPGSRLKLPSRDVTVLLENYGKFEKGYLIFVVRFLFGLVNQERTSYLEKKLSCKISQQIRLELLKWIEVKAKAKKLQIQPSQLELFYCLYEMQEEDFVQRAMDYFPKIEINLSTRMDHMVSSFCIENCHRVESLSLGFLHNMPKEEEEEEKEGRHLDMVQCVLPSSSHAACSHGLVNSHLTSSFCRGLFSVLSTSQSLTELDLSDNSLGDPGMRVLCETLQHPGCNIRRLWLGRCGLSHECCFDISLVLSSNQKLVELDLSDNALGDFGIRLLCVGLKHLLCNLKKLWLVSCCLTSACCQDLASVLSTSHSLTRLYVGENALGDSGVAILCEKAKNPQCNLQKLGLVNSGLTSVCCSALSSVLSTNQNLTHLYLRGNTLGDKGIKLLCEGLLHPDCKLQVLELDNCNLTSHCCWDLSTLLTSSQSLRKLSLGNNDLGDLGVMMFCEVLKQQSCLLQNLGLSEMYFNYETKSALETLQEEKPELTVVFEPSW
# Method in brief: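 IL-1β release was read by HTRF after 16–24 h antibody incubation at room temperature, using supernatants from THP-1-derived macrophages (IFN-γ 25 ng/mL, LPS 50 ng/mL priming) given compound 30 min and then 20 mM ATP for 2 h. % inhibition versus concentration was fitted logistically for IC50.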
# [1] = Homo sapiens, THP-1, THP-1 macrophages
IC50 (NF-κB pathway; [1]) [nM],IC50 (NLRP3 inflammasome) [nM],IC50 (NF-κB pathway; THP-1 macrophages) [nM],SMILES
> 30000,390,,CC(=O)NCCCCNc1nc2nn(-c3c(C)cc(C)cc3O)cc2s1 [Example 39]
,15,> 30000,"Cc1cc(O)c(-n2cc3sc(N[C@@H]4C[C@@H](F)CN(C)C4)nc3n2)c(C2CC2(F)F)c1 (single isomer, unassigned) [Example 127, 3-[(R)-2,2-difluorocyclopropyl]-2-(5-{[(3R,5R)-5-fluoro-1-methylpiperidin-3-yl]amino}-2H-pyrazolo[3,4-d][1,3]thiazol-2-yl)-5-methylphenol or 3-[(S)-2,2-difluorocyclopropyl]-2-(5-{[(3R,5R)-5-fluoro-1-methylpiperidin-3-yl]amino}-2H-pyrazolo[3,4-d][1,3]thiazol-2-yl)-5-methylphenol (tR1)]"
> 10000,540,,"Cc1cc(C)c(-n2cc3sc(NC4CCN(C(=O)C(F)F)C4)nc3n2)c(O)c1 (stereo not shown) [Example 90, 2,2-difluoro-1-(3-{[2-(2-hydroxy-4,6-dimethylphenyl)-2H-pyrazolo[3,4-d][1,3]thiazol-5-yl]amino}pyrrolidin-1-yl)ethan-1-one]"
> 30000,14,,"Cc1cc(Cl)cc(O)c1-n1cc2sc(N[C@@H]3C[C@@H](F)CN(C)C3)nc2n1 [Example 9, 5-chloro-2-(5-{[(3R,5R)-5-fluoro-1-methylpiperidin-3-yl]amino}-2H-pyrazolo[3,4-d][1,3]thiazol-2-yl)-3-methylphenol]"
> 10000,830,,"Cc1cc(C)c(-n2cc3sc(N[C@H]4CC[C@@H](O)CC4)nc3n2)c(O)c1 [Example 26, 2-{5-[(cis-4-hydroxycyclohexyl)amino]-2H-pyrazolo[3,4-d][1,3]thiazol-2-yl}-3,5-dimethylphenol]"
> 30000,270,,"Cc1cc(C)c(-n2cc3sc(NC4CCN(C)C4)nc3n2)c(O)c1 (stereo not shown) [Example 92, 3,5-dimethyl-2-{5-[(1-methylpyrrolidin-3-yl)amino]-2H-pyrazolo[3,4-d][1,3]thiazol-2-yl}phenol]"
> 30000,420,,"Cc1cc(C)c(-n2cc3sc(NC4CCN(S(=O)(=O)C5CC5)C4)nc3n2)c(O)c1 (stereo not shown) [Example 101, 2-(5-{[1-(cyclopropanesulfonyl)pyrrolidin-3-yl]amino}-2H-pyrazolo[3,4-d][1,3]thiazol-2-yl)-3,5-dimethylphenol]"
> 30000,96,,"CCc1cc(C)cc(O)c1-n1cc2sc(NC[C@@H](C)O)nc2n1 [Example 87, 3-ethyl-2-(5-{[(2R)-2-hydroxypropyl]amino}-2H-pyrazolo[3,4-d][1,3]thiazol-2-yl)-5-methylphenol]"
> 30000,580,,"CNC(=O)N1CCC(Nc2nc3nn(-c4c(C)cc(C)cc4O)cc3s2)CC1 [Example 131, 4-{[2-(2-hydroxy-4,6-dimethylphenyl)-2H-pyrazolo[3,4-d][1,3]thiazol-5-yl]amino}-N-methylpiperidine-1-carboxamide]"
> 30000,120,,"COCCN(c1nc2nn(-c3c(C)cc(C)cc3O)cc2s1)[C@@H]1CCCNC1 [Example 37, 2-(5-{(2-methoxyethyl)[(3R)-piperidin-3-yl]amino}-2H-pyrazolo[3,4-d][1,3]thiazol-2-yl)-3,5-dimethylphenol]"
> 30000,440,,"CC(=O)NCCNc1nc2nn(-c3c(C)cc(C)cc3O)cc2s1 [Example 38, N-(2-{[2-(2-hydroxy-4,6-dimethylphenyl)-2H-pyrazolo[3,4-d][1,3]thiazol-5-yl]amino}ethyl)acetamide]"
> 10000,160,,"Cc1cc(C)c(-n2cc3sc(NCC(O)C(F)F)nc3n2)c(O)c1 (stereo not shown) [Example 171, 2-{5-[(3,3-difluoro-2-hydroxypropyl)amino]-2H-pyrazolo[3,4-d][1,3]thiazol-2-yl}-3,5-dimethylphenol]"
> 10000,130,,"COc1cc(C)cc(O)c1-n1cc2sc(N[C@@H]3C[C@@H](F)CN(C)C3)nc2n1 [Example 48, 2-(5-{[(3R,5R)-5-fluoro-1-methylpiperidin-3-yl]amino}-2H-pyrazolo[3,4-d][1,3]thiazol-2-yl)-3-methoxy-5-methylphenol]"
> 10000,90,,"COc1cc(C)c(-n2cc3sc(N[C@H]4CN(C)C[C@@H]4F)nc3n2)c(O)c1 [Example 135, 2-(5-{[(3S,4S)-4-fluoro-1-methylpyrrolidin-3-yl]amino}-2H-pyrazolo[3,4-d][1,3]thiazol-2-yl)-5-methoxy-3-methylphenol]"
> 30000,810,,"CNC(=O)N1CCCC(Nc2nc3nn(-c4c(C)cc(C)cc4O)cc3s2)C1 (stereo not shown) [Example 111, 3-{[2-(2-hydroxy-4,6-dimethylphenyl) 2H-pyrazolo[3,4-d][1,3]thiazol-5-yl]amino}-N-methyl-piperidine-1-carboxamide]"
> 10000,2000,,"COC(=O)N1CC[C@H](Nc2nc3nn(-c4c(C)cc(C)cc4O)cc3s2)C1 [Example 156, methyl (3S)-3-{[2-(2-hydroxy-4,6-dimethylphenyl)-2H-pyrazolo[3,4-d][1,3]thiazol-5-yl]amino}pyrrolidine-1-carboxylate]"
> 10000,830,,"Cc1cc(C)c(-n2cc3sc(NC4CC5(CC(O)C5)C4)nc3n2)c(O)c1 (stereo not shown) [Example 30, 6-{[2-(2-hydroxy-4,6-dimethylphenyl)-2H-pyrazolo[3,4-d][1,3]thiazol-5-yl]amino}spiro[3.3]heptan-2-ol]"
> 30000,5400,,"CO[C@H]1C[C@@H](Nc2nc3nn(-c4c(C)cc(C)cc4O)cc3s2)CN(C)C1 [Example 19, 2-(5-{[(3R,5S)-5-methoxy-1-methylpiperidin-3-yl]amino}-2H-pyrazolo[3,4-d][1,3]thiazol-2-yl)-3,5-dimethylphenol]"
> 30000,400,,"Cc1cc(C)c(-n2cc3sc(NC(C)C(C)O)nc3n2)c(O)c1 (stereo not shown) [Example 140, 2-{5-[(3-hydroxybutan-2-yl)amino]-2H-pyrazolo[3,4-d] [1,3]thiazol-2-yl}-3,5-dimethylphenol]"
> 30000,620,,"Cc1cc(C)c(-n2cc3sc(NC4CCN(S(C)(=O)=O)C4)nc3n2)c(O)c1 (stereo not shown) [Example 100, 2-(5-{[1-(methanesulfonyl)pyrrolidin-3-yl]amino}-2H-pyrazolo[3,4-d][1,3]thiazol-2-yl)-3,5-dimethylphenol]"
> 10000,840,,"Cc1cc(C)c(-n2cc3sc(NC4(C(F)F)CC4)nc3n2)c(O)c1 [Example 147, 2-(5-{[1-(difluoromethyl)cyclopropyl]amino}-2H-pyrazolo[3,4-d][1,3]thiazol-2-yl)-3,5-dimethylphenol]"
> 30000,2.8,,"CCN1C[C@H](F)C[C@@H](Nc2nc3nn(-c4c(O)cc(C)cc4OC(F)F)cc3s2)C1 [Example 51, 3-(difluoromethoxy)-2-(5-{[(3R,5R)-1-ethyl-5-fluoropiperidin-3-yl]amino}-2H-pyrazolo[3,4-d][1,3]thiazol-2-yl)-5-methylphenol]"
> 30000,880,,"CC(=O)N1CCC(Nc2nc3nn(-c4c(C)cc(C)cc4O)cc3s2)CC1 [Example 133, 1-(4-{[2-(2-hydroxy-4,6-dimethylphenyl)-2H-pyrazolo[3,4-d][1,3]thiazol-5-yl]amino}piperidin-1-yl)ethan-1-one]"
> 10000,1000,,"COC(C)(C)CNc1nc2nn(-c3c(C)cc(C)cc3O)cc2s1 [Example 114, 2-{5-[(2-methoxy-2-methylpropyl)amino]-2H-pyrazolo[3,4-d][1,3]thiazol-2-yl}-3,5-dimethylphenol]"
> 10000,680,,"Cc1cc(C)c(-n2cc3sc(N[C@H]4C[C@](C)(O)C4)nc3n2)c(O)c1 [Example 32, 2-{5-[(trans-3-hydroxy-3-methylcyclobutyl)amino]-2H-pyrazolo[3,4-d][1,3]thiazol-2-yl}-3,5-dimethylphenol]"
> 30000,28,,"COc1cc(C)c(-n2cc3sc(N[C@@H]4C[C@@H](F)CN(C)C4)nc3n2)c(O)c1 [Example 43, 2-(5-{[(3R,5R)-5-fluoro-1-methylpiperidin-3-yl]amino}-2H-pyrazolo[3,4-d][1,3]thiazol-2-yl)-5-methoxy-3-methylphenol]"
,330,> 10000,"Cc1cc(C)c(-n2cc3sc(N[C@@H]4CC[C@@H](O)C4)nc3n2)c(O)c1 [Example 45, 2-(5-{[(1R,3R)-3-hydroxycyclopentyl]amino}-2H-pyrazolo[3,4-d][1,3]thiazol-2-yl)-3,5-dimethylphenol or 2-(5-{[(1S,3S)-3-hydroxycyclopentyl]amino}-2H-pyrazolo[3,4-d][1,3]thiazol-2-yl)-3,5-dimethylphenol (tR2)]"
> 30000,43,,"Cc1cc(C)c(-n2cc3sc(N[C@@H]4CCCN(C5CCOC5)C4)nc3n2)c(O)c1 (single isomer, unassigned) [Example 71, 3,5-dimethyl-2-[5-({(3R)-1-[(S)-oxolan-3-yl]piperidin-3-yl}amino)-2H-pyrazolo[3,4-d][1,3]thiazol-2-yl]phenol or 3,5-dimethyl-2-[5-({(3R)-1-[(R)-oxolan-3-yl]piperidin-3-yl}amino)-2H-pyrazolo[3,4-d][1,3]thiazol-2-yl]phenol (tR1)]"
> 30000,2600,,"Cc1cnc(-n2nc3nc(N[C@@H]4CCCN(C)C4)sc3c2C)c(O)c1 [Example 58, 5-methyl-2-(3-methyl-5-{[(3R)-1-methylpiperidin-3-yl]amino}-2H-pyrazolo[3,4-d][1,3]thiazol-2-yl)pyridin-3-ol]"
